Assay results published in PMC10460844, “Real‐Time Monitoring of Multitarget Antimicrobial Mechanisms of Peptoids Using Label‐Free Imaging with Optical Diffraction Tomography” (Advanced Science, 2023).
Square brackets hold non-standard residues; d marks the D form. Peptide text beside a SMILES is read from it. Gly(N(CH2)2(3-indolyl)) = O=C(O)CNCCc1c[nH]c2ccccc12; Nspe = C[C@H](NCC(=O)O)c1ccccc1; Nphe = O=C(O)CNCc1ccccc1; Nlys = NCCCCNCC(=O)O

Key:
[1] = Analytical reversed-phase HPLC elution (hydrophobicity); format: physicochemical; details: Table S1; analytical RP-HPLC, SunFire C18, water/ACN + 0.1% TFA, 5 to 100% B linear over 30 min, 1 mL/min, UV 220 nm; approximate comparison of hydrophobicity
Summary of the method: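 Retention time (tR) reflects hydrophobicity, with detection at 220 nm. Elution used a 5–100% acetonitrile linear gradient over 30 min after a 2 min hold at 5%, then 5 min at 100%, with both phases containing 0.1% TFA. Column was an analytical C18 (4.6 × 250 mm, 5 μm) run at 1 mL/min.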

rat erythrocytes = test: Hemolysis assay; format: cell-based
Summary of the method: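 Washed Sprague-Dawley rat erythrocytes (10% suspension in PBS pH 7.4) mixed with peptoids (0–100 µM), 60 min at 37 °C; supernatant A540 expressed as % of 1% Triton X-100 lysis. HC10/HC50 are concentrations giving 10%/50% hemolysis; Hmax is hemolysis at 100 µM.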

Compound: C[C@@H](c1ccccc1)N(CC(N)=O)C(=O)CN(C(=O)CN(CCCCN)C(=O)CN(C(=O)CN(C(=O)CN(CCCCN)C(=O)CN(C(=O)CN(C(=O)CN(CCCCN)C(=O)CN(C(=O)CN(CCCCN)C(=O)CN(CCCCN)C(=O)CN(CCc1c[nH]c2ccccc12)C(=O)CNCCc1c[nH]c2ccccc12)[C@@H](C)c1ccccc1)[C@@H](C)c1ccccc1)[C@@H](C)c1ccccc1)[C@@H](C)c1ccccc1)[C@@H](C)c1ccccc1)[C@@H](C)c1ccccc1 [peptoid 36]
- HPLC elution [1]: 52.4 % MeCN
- Hmax (100 µM) (rat erythrocytes): 89.1±3.4%
- HC10 (rat erythrocytes; pH 7.4): 15.3 µM
- HC50 (rat erythrocytes; pH 7.4): 39.4 µM

Compound: C[C@@H](c1ccccc1)N(CC(=O)N(CCCCN)CC(=O)N(CC(=O)N(CC(=O)N(CCCCN)CC(=O)N(CC(=O)N(CC(=O)N(CCCCN)CC(N)=O)[C@@H](C)c1ccccc1)[C@@H](C)c1ccccc1)[C@@H](C)c1ccccc1)[C@@H](C)c1ccccc1)C(=O)CN(C(=O)CN(CCCCN)C(=O)CN(CCc1c[nH]c2ccccc12)C(=O)CNCCc1c[nH]c2ccccc12)[C@@H](C)c1ccccc1 [peptoid 37] (H-[Gly(N(CH2)2(3-indolyl))][Gly(N(CH2)2(3-indolyl))][Nlys][Nspe][Nspe][Nlys][Nspe][Nspe][Nlys][Nspe][Nspe][Nlys]-NH2)
- HPLC elution [1]: 52.7 % MeCN
- HC10 (rat erythrocytes; pH 7.4): 21.1 µM
- HC50 (rat erythrocytes; pH 7.4): 57.0 µM
- HC10 (rat erythrocytes; red cells of rat): 13.2 µM
- HC50 (rat erythrocytes; red cells of rat): 38.6 µM

Compound: C[C@@H](c1ccccc1)N(CC(=O)N(CCCCN)CC(=O)N(CCCCN)CC(=O)N(CC(=O)N(CC(=O)N(CCCCN)CC(=O)N(CC(=O)N(CC(=O)N(CCCCN)CC(N)=O)[C@@H](C)c1ccccc1)[C@@H](C)c1ccccc1)[C@@H](C)c1ccccc1)[C@@H](C)c1ccccc1)C(=O)CN(CCCCN)C(=O)CN(CCc1c[nH]c2ccccc12)C(=O)CNCCc1c[nH]c2ccccc12 [peptoid 38] (H-[Gly(N(CH2)2(3-indolyl))][Gly(N(CH2)2(3-indolyl))][Nlys][Nspe][Nlys][Nlys][Nspe][Nspe][Nlys][Nspe][Nspe][Nlys]-NH2)
- HPLC elution [1]: 47.8 % MeCN
- Hmax (100 µM) (rat erythrocytes): 5.9±0.5%
- HC10 (rat erythrocytes; pH 7.4): > 100 µM
- HC50 (rat erythrocytes; pH 7.4): > 100 µM

Compound: C[C@@H](c1ccccc1)N(CC(=O)N(CCCCN)CC(=O)N(CC(=O)N(CC(=O)N(CCCCN)CC(=O)N(CCCCN)CC(=O)N(CC(=O)N(CCCCN)CC(=O)N(CCc1c[nH]c2ccccc12)CC(=O)N(CCc1c[nH]c2ccccc12)CC(N)=O)Cc1ccccc1)[C@@H](C)c1ccccc1)[C@@H](C)c1ccccc1)C(=O)CN(C(=O)CNCCCCN)[C@@H](C)c1ccccc1 [peptoid 39] (H-[Nlys][Nspe][Nspe][Nlys][Nspe][Nspe][Nlys][Nlys][Nphe][Nlys][Gly(N(CH2)2(3-indolyl))][Gly(N(CH2)2(3-indolyl))]-NH2)
- HPLC elution [1]: 47.8 % MeCN
- Hmax (100 µM) (rat erythrocytes): 10.2±0.3%
- HC10 (rat erythrocytes; pH 7.4): 100 µM
- HC50 (rat erythrocytes; pH 7.4): > 100 µM

Compound: C[C@@H](c1ccccc1)N(CC(=O)N(CCCCN)CC(=O)N(CCc1c[nH]c2ccccc12)CC(=O)N(CCc1c[nH]c2ccccc12)CC(N)=O)C(=O)CN(CCCCN)C(=O)CN(CCCCN)C(=O)CN(Cc1ccccc1)C(=O)CN(Cc1ccccc1)C(=O)CN(CCCCN)C(=O)CN(C(=O)CN(C(=O)CNCCCCN)[C@@H](C)c1ccccc1)[C@@H](C)c1ccccc1 [peptoid 40] (H-[Nlys][Nspe][Nspe][Nlys][Nphe][Nphe][Nlys][Nlys][Nspe][Nlys][Gly(N(CH2)2(3-indolyl))][Gly(N(CH2)2(3-indolyl))]-NH2)
- HPLC elution [1]: 47.5 % MeCN
- Hmax (100 µM) (rat erythrocytes): 8.9±0.2%
- HC10 (rat erythrocytes; pH 7.4): > 100 µM
- HC50 (rat erythrocytes; pH 7.4): > 100 µM

Compound: C[C@@H](c1ccccc1)N(CC(=O)N(CCCCN)CC(=O)N(CCc1c[nH]c2ccccc12)CC(=O)N(CCc1c[nH]c2ccccc12)CC(N)=O)C(=O)CN(CCCCN)C(=O)CN(CCCCN)C(=O)CN(C(=O)CN(C(=O)CN(CCCCN)C(=O)CN(Cc1ccccc1)C(=O)CN(Cc1ccccc1)C(=O)CNCCCCN)[C@@H](C)c1ccccc1)[C@@H](C)c1ccccc1 [peptoid 41] (H-[Nlys][Nphe][Nphe][Nlys][Nspe][Nspe][Nlys][Nlys][Nspe][Nlys][Gly(N(CH2)2(3-indolyl))][Gly(N(CH2)2(3-indolyl))]-NH2)
- HPLC elution [1]: 47.5 % MeCN
- Hmax (100 µM) (rat erythrocytes): 7.1±0.1%
- HC10 (rat erythrocytes; pH 7.4): > 100 µM
- HC50 (rat erythrocytes; pH 7.4): > 100 µM

Compound: C[C@@H](c1ccccc1)N(CC(=O)N(CCCCN)CC(=O)N(CC(=O)N(CC(=O)N(CCCCN)CC(=O)N(CC(=O)N(CC(=O)N(CCCCN)CC(=O)N(CC(=O)N(CC(=O)N(CC(N)=O)Cc1ccccc1)[C@@H](C)c1ccccc1)[C@@H](C)c1ccccc1)[C@@H](C)c1ccccc1)[C@@H](C)c1ccccc1)[C@@H](C)c1ccccc1)[C@@H](C)c1ccccc1)C(=O)CN(C(=O)CN(CCCCN)C(=O)CNCc1ccccc1)[C@@H](C)c1ccccc1 [peptoid 42] (H-[Nphe][Nlys][Nspe][Nspe][Nlys][Nspe][Nspe][Nlys][Nspe][Nspe][Nlys][Nspe][Nspe][Nphe]-NH2)
- HPLC elution [1]: 57.7 % MeCN
- Hmax (100 µM) (rat erythrocytes): 105.9±1.1%
- HC10 (rat erythrocytes; pH 7.4): < 3.1 µM
- HC50 (rat erythrocytes; pH 7.4): 6.6 µM

Compound: C[C@@H](c1ccccc1)N(CC(N)=O)C(=O)CN(C(=O)CN(CCCCN)C(=O)CN(C(=O)CN(C(=O)CN(CCCCN)C(=O)CN(C(=O)CN(C(=O)CN(CCCCN)C(=O)CN(C(=O)CN(C(=O)CN(CCCCN)C(=O)CN(Cc1ccccc1)C(=O)CNCc1ccccc1)[C@@H](C)c1ccccc1)[C@@H](C)c1ccccc1)[C@@H](C)c1ccccc1)[C@@H](C)c1ccccc1)[C@@H](C)c1ccccc1)[C@@H](C)c1ccccc1)[C@@H](C)c1ccccc1 [peptoid 43]
- HPLC elution [1]: 56.8 % MeCN
- Hmax (100 µM) (rat erythrocytes): 105.6±3.8%
- HC10 (rat erythrocytes; pH 7.4): < 3.1 µM
- HC50 (rat erythrocytes; pH 7.4): 6.4 µM

Compound: C[C@@H](c1ccccc1)N(CC(=O)N(CCCCN)CC(=O)N(CC(=O)N(CC(=O)N(CCCCN)CC(=O)N(CC(=O)N(CC(=O)N(CCCCN)CC(=O)N(CC(=O)N(CC(N)=O)Cc1ccccc1)Cc1ccccc1)[C@@H](C)c1ccccc1)[C@@H](C)c1ccccc1)[C@@H](C)c1ccccc1)[C@@H](C)c1ccccc1)C(=O)CN(C(=O)CNCCCCN)[C@@H](C)c1ccccc1 [peptoid 44] (H-[Nlys][Nspe][Nspe][Nlys][Nspe][Nspe][Nlys][Nspe][Nspe][Nlys][Nphe][Nphe]-NH2)
- HPLC elution [1]: 53.1 % MeCN
- Hmax (100 µM) (rat erythrocytes): 97.9±3.7%
- HC10 (rat erythrocytes; pH 7.4): 6.3 µM
- HC50 (rat erythrocytes; pH 7.4): 28.6 µM

Compound: C[C@@H](c1ccccc1)N(CC(N)=O)C(=O)CN(C(=O)CN(CCCCN)C(=O)CN(C(=O)CN(C(=O)CN(CCCCN)C(=O)CN(C(=O)CN(C(=O)CN(CCCCN)C(=O)CN(Cc1ccccc1)C(=O)CN(Cc1ccccc1)C(=O)CNCCCCN)[C@@H](C)c1ccccc1)[C@@H](C)c1ccccc1)[C@@H](C)c1ccccc1)[C@@H](C)c1ccccc1)[C@@H](C)c1ccccc1 [peptoid 46]
- HPLC elution [1]: 53.7 % MeCN
- Hmax (100 µM) (rat erythrocytes): 90.8±2.7%
- HC10 (rat erythrocytes; pH 7.4): 6.9 µM
- HC50 (rat erythrocytes; pH 7.4): 36.5 µM

Compound: C[C@@H](c1ccccc1)N(CC(N)=O)C(=O)CN(CCCCN)C(=O)CN(CCCCN)C(=O)CN(C(=O)CN(C(=O)CN(CCCCN)C(=O)CN(C(=O)CN(C(=O)CN(CCCCN)C(=O)CN(Cc1ccccc1)C(=O)CN(Cc1ccccc1)C(=O)CNCCCCN)[C@@H](C)c1ccccc1)[C@@H](C)c1ccccc1)[C@@H](C)c1ccccc1)[C@@H](C)c1ccccc1 [peptoid 47]
- HPLC elution [1]: 47.8 % MeCN
- Hmax (100 µM) (rat erythrocytes): 4.8±0.2%
- HC10 (rat erythrocytes; pH 7.4): > 100 µM
- HC50 (rat erythrocytes; pH 7.4): > 100 µM
